Values of other authors in US20160287599A1, “SUBSTITUTED 1,2,4-TRIAZINE-3,5-DIONES AND THE USE THEREOF AS CHYMASE INHIBITORS” (BAYER PHARMA AKTIENGESELLSCHAFT, priority 2013, published 2016).

Test system: chymase
Conditions: hamsters, myocardial infarction model

## CCOc1ccccc1CC1C(=O)N(C(=O)NC(c2ccc(C)cc2)c2ccc(C)cc2)C1Oc1ccc(C(=O)O)cc1 (stereo not drawn) [BCEAB]
  chymase activity: reduced
  haemodynamics: improved
  mortality: reduced
